Entries after “also recorded” stand apart in the source; their conditions may differ. Read-outs that look alike come from different tables or passages of the source.
What was measured:
[1] = for Rate of Body Weight Change: 21st day vs 7th day; for Body weight decrease, in words: in combination with Cisplatin
Procedure: Methodology. 10 mg of a murine colonic tumor, colon 26, was inoculated under the skin of the back of CDF1 mice (day 0). After one week, the tumor was measured to calculate the volume of the tumor and the mice were classified into several groups (each group: n=5) and administration of the stilbene derivative and Cisplatin was started. On days 7, 11 and 15, the tumor-inoculated mice were bolusly injected under the skin of their backs and into their tail veins with 1 mg of the stilbene derivative of formula (3) in 1 ml of physiological saline solution and 0.5 mg of Cisplatin (“randa Inj”) in a volume of 1 ml. Control and comparative groups of mice were similarly injected with the other drug combinations described in Table 1. The comparative drug Vindesine is an antitumor drug used in combination with Cisplatin by Garalla et al. VP-16 is also a chemotherapeutic drug which is often used clinically in combination with Cisplatin.
As indicated in Table 1 the term [−CDDP] means that Cisplatin was not administered at all. The term [+CDDP] means that Cisplatin was administered in an amount of 5 mg/kg/day. The term [n.d.] means that no testing was performed.
Safety. The rate of body weight change was used as a measure of safety as significant loss of body weight is undesirable in cancer patients. Body weight change was calculated using the following equation: Rate of body weight change (%)=[{(body weight−weight of the tumor) at the 21st day}−{(body weight−weight of the tumor) at the 7th day}]/{body weight−weight of the tumor) at the 7th day}×100.
Using the above equation, the rate of body weight change at the 21st day was calculated.

[2] = system: murine colonic tumor, colon 26; experiment: Antitumor Activity Test (1): complete regression of colon 26 tumor in CDF1 mice (Example 1); format: in vivo; details: for Number of instances of complete regression of tumors: palpation on 60th day; for Complete regression (curing) of tumors in mice, in words: in combination with Cisplatin
Procedure: Antitumor effects: Complete regression of the colonic tumor was determined by palpation. Subjects in which the tumor has not been ascertained by palpation on the 60th day were deemed to have their tumors cured completely.

[3] = Safety Tests (2) and (3): rate of body weight change in colon 26 tumor-bearing CDF1 mice (Example 2); format: in vivo; details: 21st day vs 7th day
Procedure: (§1) Stilbene derivatives of formulas (3), (4) and (5), and Cisplatin and Carboplatin were bolusly injected into the tail vein on the 7th, 11th and 15th days as described in Tables 3 through 6 below.
(§2) The terms: [+CBDCA] and [+CDDP] indicate that 50 mg/kg/day of carboplatin or 5 mg/kg/day of cisplatin were administered, respectively. The terms: [−CBDCA] and [−CDDP] indicate that no carboplatin or cisplatin were administered. The dosages of cisplatin and carboplatin denote the maximum dosages without death due to toxicity in the administration schedule in the present embodiment.
Body weight change on the 21st day was calculated using the equation described in Example 1.

[4] = system: colonic tumor of mouse, colon 26; experiment: Antitumor Activity Tests (2) and (3): complete regression of colon 26 tumor in CDF1 mice (Example 2); format: in vivo; details: palpation on 60th day
Procedure: as §1
Antitumor effects: Complete regression of the colonic tumor was determined by palpation. Subjects in which the tumor had not been ascertained by palpation on the 60th day were deemed to have their tumors completely cured.
as §2

[5] = Solubility in water (statement)
[6] = Control, +CDDP: cisplatin alone 5 mg/kg/day
[7] = +CDDP (cisplatin 5 mg/kg/day), sample 5 mg/kg/day
[8] = Control, +CBDCA: carboplatin alone 50 mg/kg/day

In the case of COc1cc([C@@H]2c3cc4c(cc3[C@@H](O[C@@H]3O[C@@H]5CO[C@@H](C)O[C@H]5[C@H](O)[C@H]3O)[C@H]3COC(=O)[C@H]23)OCO4)cc(OC)c1O [VP-16, reference compound], the “Rate of Body Weight Change” value ([1]; +CDDP (Cisplatin 5 mg/kg/day), sample 30 mg/kg/day) is reported as −9.9%, the “Body weight decrease, in words” value [1] is reported as “high rates of body weight loss” and the “Rate of Body Weight Change” value ([1]; −CDDP, sample 30 mg/kg/day) is reported as −1.0%. The “Number of instances of complete regression of tumors” value (“Number” below) ([2]; +CDDP (Cisplatin 5 mg/kg/day), sample 30 mg/kg/day on days 7, 11, 15) was 0/5, the “Complete regression (curing) of tumors in mice, in words” value [2] was “complete tumor regression was not observed” and the “Number” value ([2]; −CDDP, sample 30 mg/kg/day on days 7, 11, 15) was 0/5.

In the case of COc1ccc(/C=C\c2cc(OC)c(OC)c(OC)c2)cc1N [Compound (5)], the “Rate of Body Weight Change” value ([3]; +CDDP (cisplatin 5 mg/kg/day), sample 20 mg/kg/day) is reported as −0.3%, the “Rate of Body Weight Change” value ([3]; −CDDP, sample 20 mg/kg/day) is reported as −2.1% and the “Number” value ([4]; +CDDP (cisplatin 5 mg/kg/day), sample 20 mg/kg/day, tail vein, 7th, 11th, 15th days) is reported as 6/6. For the same compound, the “Number” value ([4]; −CDDP, sample 20 mg/kg/day, tail vein, 7th, 11th, 15th days) was 0/6.

In the case of N.N.[Cl][Pt][Cl] [CDDP, cis-diamminedichloroplatinum (II), reference compound], the “Rate of Body Weight Change” value [3, 6] is reported as −11.4%, the “Number” value [4, 6] is reported as 0/6 and the “Rate of Body Weight Change” value [1, 6] is reported as −11.1%. For the same compound, the “Number” value ([2]; Control, +CDDP: Cisplatin alone 5 mg/kg/day on days 7, 11, 15) was 0/5.

In the case of COc1ccc(/C=C(/C#N)c2cc(OC)c(OC)c(OC)c2)cc1N [Compound (4)], the “Rate of Body Weight Change” value [3, 7] is reported as −13.9%, the “Rate of Body Weight Change” value ([3]; −CDDP, sample 5 mg/kg/day) is reported as −7.0% and the “Number” value ([4]; +CDDP (cisplatin 5 mg/kg/day), sample 5 mg/kg/day, tail vein, 7th, 11th, 15th days) is reported as 4/6. For the same compound, the “Number” value ([4]; −CDDP, sample 5 mg/kg/day, tail vein, 7th, 11th, 15th days) was 0/6.

For COc1ccc(/C=C\c2cc(OC)c(OC)c(OC)c2)cc1NC(=O)C(N)CO [Compound (3), (Z)-1-(3-amino-4-methoxyphenyl)-2-(3,4,5-trimethoxyphenyl)-ethene-L-serine amide], the “Rate of Body Weight Change” value ([3]; +CBDCA (carboplatin 50 mg/kg/day), sample 20 mg/kg/day) was 1.8%, the “Rate of Body Weight Change” value ([3]; −CBDCA, sample 20 mg/kg/day) was −7.4% and the “Number” value ([4]; +CBDCA (carboplatin 50 mg/kg/day), sample 20 mg/kg/day, tail vein, 7th, 11th, 15th days) was 1/6. The “Number” value ([4]; −CBDCA, sample 20 mg/kg/day, tail vein, 7th, 11th, 15th days) was 0/6, the “Solubility in water, in words” value [5] was “soluble in water” and the “Rate of Body Weight Change” value ([1]; +CDDP (Cisplatin 5 mg/kg/day), sample 10 mg/kg/day) was −1.9%. The “Rate of Body Weight Change” value [1, 7] was −4.2%, the “Body weight decrease, in words” value [1] was “did not cause significant decreases in body weight” and the “Rate of Body Weight Change” value ([1]; −CDDP, sample 10 mg/kg/day, tumor weight subtracted) was −7.7%. For the same compound, the “Number” value ([2]; +CDDP (Cisplatin 5 mg/kg/day), sample 5 mg/kg/day on days 7, 11, 15) was 1/5, the “Number” value ([2]; +CDDP (Cisplatin 5 mg/kg/day), sample 10 mg/kg/day on days 7, 11, 15) was 4/5 and the “Number” value ([2]; −CDDP, sample 10 mg/kg/day on days 7, 11, 15) was 0/5.

For [NH2][Pt]1([NH2])[O]C(=O)C2(CCC2)C(=O)[O]1 [CBDCA, diammine(1,1-cyclobutane dicarboxylate) platinum (II), reference compound], the “Rate of Body Weight Change” value [3, 8] was −9.6% and the “Number” value [4, 8] was 0/6.

With CC[C@]1(O)C[C@@H]2CN(CCc3c([nH]c4ccccc34)[C@@](C(=O)OC)(c3cc4c(cc3OC)N(C)[C@H]3[C@@](O)(C(N)=O)[C@H](O)[C@]5(CC)C=CCN6CC[C@]43[C@@H]65)C2)C1 [Vindesine] the “Number” value ([2]; +CDDP (Cisplatin 5 mg/kg/day), sample 2 mg/kg/day on days 7, 11, 15) was 0/5 and the “Complete regression (curing) of tumors in mice, in words” value [2] was “complete curing of tumors in mice has not been observed; also recorded: complete tumor regression was not observed”.
